Results as given in patent US20250326722A1 (SHANGHAI HANSOH BIOMEDICAL CO., LTD., priority 2022, published 2025).

biological target: PCSK9 secreted by HepG2 cells (Homo sapiens (Human), UniProt Q8NBP7); test: Effect on the concentration of PCSK9 secreted by HepG2 cells (ELISA); assay type: cell-based; conditions: 48 hours incubation, read-out: Inhibitory activity on PCSK9, IC50
Sequence (Q8NBP7 153-692): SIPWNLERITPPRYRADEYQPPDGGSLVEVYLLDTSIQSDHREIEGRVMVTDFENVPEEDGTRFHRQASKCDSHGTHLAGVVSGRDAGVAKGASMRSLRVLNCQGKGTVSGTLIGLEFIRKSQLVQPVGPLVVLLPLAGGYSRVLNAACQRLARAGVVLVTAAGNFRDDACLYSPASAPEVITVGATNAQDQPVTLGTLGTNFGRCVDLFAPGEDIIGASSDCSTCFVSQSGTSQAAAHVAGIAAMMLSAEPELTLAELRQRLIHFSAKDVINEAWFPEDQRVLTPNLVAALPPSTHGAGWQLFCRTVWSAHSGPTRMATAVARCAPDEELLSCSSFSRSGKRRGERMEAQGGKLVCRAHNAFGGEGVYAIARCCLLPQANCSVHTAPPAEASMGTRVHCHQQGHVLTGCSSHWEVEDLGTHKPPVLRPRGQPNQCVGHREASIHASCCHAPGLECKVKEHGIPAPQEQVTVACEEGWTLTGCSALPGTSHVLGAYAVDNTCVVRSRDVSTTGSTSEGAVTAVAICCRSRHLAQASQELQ
Sequence (Q8NBP7 31-152 partner): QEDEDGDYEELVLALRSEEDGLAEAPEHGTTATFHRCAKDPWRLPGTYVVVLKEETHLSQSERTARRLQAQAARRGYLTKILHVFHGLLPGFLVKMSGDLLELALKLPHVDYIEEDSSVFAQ

In order of falling IC50:
1. O=C1c2ncccc2CN1c1ccc(N[C@H]2CC[C@H](Nc3ncc(C(F)(F)F)nn3)C2)nc1 [Example 144]  27.5 µM
2. Cc1cc2c(cn1)CN(c1ccc(N[C@H]3CC[C@H](Nc4ncc(C(F)(F)F)nn4)C3)nc1)C2=O [Example 148, 6-Methyl-2-(6-(((1S,3S)-3-((6-(trifluoromethyl)-1,2,4-triazin-3-yl)amino)cyclopentyl)amino)pyridin-3-yl)-2,3-dihydro-1H-pyrrolo[3,4-c]pyridin-1-one]  9.4 µM
3. O=C1c2c(cccc2C(F)(F)F)CN1c1ccc(N[C@H]2CC[C@H](Nc3ncc(C(F)(F)F)nn3)C2)nc1 [Example 157, 7-(Trifluoromethyl)-2-(6-(((1S,3S)-3-((6-(trifluoromethyl)-1,2,4-triazin-3-yl)amino)cyclopentyl)amino)pyridin-3-yl) isoindolin-1-one]  4.2 µM
